# Values joined by “and” are separate entries in the source; they are usually repeats but may differ in a detail not shown here. Equal values may be shown once.
# Experiments:
# [1] = Pharmacokinetics upon single intravenous administration; format: in vivo, mice; design: ke: unit not given here; details: mouse serum, IV bolus; AMB 1 mg/kg, Compound 6 5 mg/kg
# Description: AMB and Compound 6 solution in saline were administrated intravenously (IV) to groups of mice at a dose of 1 and 5 mg/kg body weight, respectively. The mice received an IV bolus via the tail vein. Mice were bled over a 48 h period at the following time points: 0, 5, 15 and 30 minutes and 1, 2, 6, 12, 24 and 48 h post-dosing (3 mice per time point). Bleeding was conducted using a facial vein technique into sterile Eppendorf tubes. Whole blood samples of 150 μl were collected at each time point, stored for 30 min at room temperature for clotting and centrifuged at 10,000 RPM for 10 minutes until serum separated. The serum samples were stored at −20° C.
# The concentration of Compound 6 in the serum was measured by HPLC as follows: UltiMate® 3000 system (Dionex) was used equipped with 3000 pump, VWD-3000 UV-Vis detector and Chromeleon® 6.80 software. The column used was LiChroCART® 250×4.6 mm Purospher® STAR (5 μm) C-18 RP (reverse phase). Chromatographic conditions: flow: 1.0 ml/min, linear water (buffer A)/acetonitrile (ACN) (buffer B) gradient (buffer A—100% water, 0.1% TFA; buffer B—100% ACN, 0.1% TFA).
# 200 μl of methanol was added to 100 μl of serum sample and vortexed for 20 seconds, stored for 30 min at room temperature (22° C.), then centrifuged at 14,000 RPM for 10 minutes. The supernatant was filtered through a 0.22 μm filter and aliquots of 100 μl were analyzed by HPLC. AMB and Compound 6 were detected at a wavelength of 407 nm.
# The pharmacokinetic graphs depicting drug concentration over time are shown in FIGS. 8A-8B (over 24 hours and 120 minutes respectively) and the calculated PK values are shown in Table 6 below.
# [2] = tested on: human erythrocytes; test: In-vitro toxicity (hemolysis) study; format: cell-based; details: 6 μg/ml; for toxicity to erythrocytes: assay conditions of FIG. 4B
# Description: Reference is made to FIG. 4B. Fresh human erythrocytes were diluted 1:100 in PBS, and incubated in an Eppendorf tube while rotating slowly in the presence of 6 μg/ml of each of compound 4 and compound 6. Amphotericin B was used as positive control. Sterile double distilled water served as a control for 100% hemolysis. After 1, 3, 5 and 21 h, 20 μl of each test tube were removed and diluted in 180 μl PBS. Samples were centrifuged for 10 minutes at 1200 RPM and the optical density of the supernatant was measured at 425 nm.
# [3] = tested on: ICR mice; test: In vivo toxicity, intravenous injection; details: for LD50 / Maximum Dose: tail vein
# Description: In-vivo toxicity was determined in mice using 6 week old female ICR mice (n=6). Different concentrations of each formulation were injected intravenously through the tail vein, 0.2 ml per mouse, until death was observed. PAD-AMB conjugates were prepared in sterile saline solution and were filtered through 0.45-micrometer pore-size cellulose acetate sterile filters prior to injection.
# [4] = tested on: C. albicans CBS 562; test: In-vitro time-kill study; format: cell-based, Candida albicans; details: 2-fold above the MIC, over 2 hours, 30° C.
# Description: In time-kill studies, C. albicans CBS 562 was grown overnight from a single colony in 50 ml of liquid YPD medium (composed of 1% (w/v) yeast extract, Difco, 2% w/v peptone, Difco, and 2% w/v dextrose, Merck) at 30° C. On the next day, the starter was diluted 1:100 in the same medium and grown to an optical density at 600 nanometers (OD600 nm) of 0.5-0.6. Then, cells were counted and diluted to 10^6 cells/ml in YPD. Compound 6 and amphotericin B (AMB) were added at concentrations 2-fold above the MIC determined for this strain (2 and 0.5 μg/ml, respectively) and shaken at 30° C. At different time points (0, 15 min, 30 min, 1 h, 2 h) samples were removed, diluted and plated on YPD agar (2% agar) plates. Colonies were counted after incubation for 24 h at 30° C. Control measurements included untreated C. albicans cells and cells treated with AMB. All time-kill curve studies were conducted in duplicate and in three independent experiments.
# [5] = tested on: C. albicans CBS 562; test: Experimental systemic murine candidiasis, survival; format: in vivo, mice; details: four daily injections, 24 days
# Description: Reference is Made to FIG. 5. Efficacy of PAD-AMB was Tested on Naïve 6 Week Old female ICR mice (n=20). Experimental systemic murine candidiasis was induced by intravenous inoculation of C. albicans CBS 562 into the tail vein using an inoculum of 5×10^4 cells in 0.2 ml per mouse. Fungal count was determined by microscopic counts on a haemocytometer. Treatment began 24 h after inoculation of C. albicans and consisted of four consecutive daily injections of Compound 6 at a range of 1.75-8.75 mg/kg/day relative to mouse body weight. Control groups included infected untreated mice and mice treated with AMB (1 mg/kg/day body weight). Survival and mouse body weight were monitored for 24 days. Survival for the various mouse groups is shown graphically in FIG. 5.
# [6] = tested on: mouse embryonic fibroblasts (MEFs); test: MTT viability assay in mouse embryonic fibroblasts; format: cell-based
# Description: Reference is made to FIG. 4C. Mouse embryonic fibroblasts were used in this example. 1×10^4 mouse embryonic fibroblasts (MEFs) per well were seeded in 96-well plates and incubated at 37° C. After 24 h the media was replaced with 100 μl culture medium containing serial dilutions of AMB, compounds 4 or 6, or left untreated. After 24 h, the media was replaced by fresh media (100 μl per well) containing 1 mg/ml MTT (3-(4,5-Dimethylthiazol-2-yl)-2,5-Diphenyltetrazolium Bromide, ((Biological Industries, Israel)) reagent and the cells were incubated for an additional 3 h at 37° C. MTT-formazan crystals were dissolved by the addition of 100 μl per well of extraction solution (20% SDS, 50% N,N-dimethyl formamide (DMF), pH=4.7) and incubation for 16 h at 37° C. Absorbance at 570 nm was recorded on a Biotek Synergy HT plate reader.
# The results were expressed as the percentage of living cells relative to the untreated control and are depicted in FIG. 4C. The inhibition concentration (IC50) value is the concentration of the compound which inhibited cell growth by 50%.
Compound,AUC0-24 [1],CL [1],MRT0-24 [1],Vd [1],t1/2 [1],toxicity to erythrocytes [2],"LD50 ([3]; female ICR mice, intravenous)","Maximum Dose ([3]; female ICR mice, intravenous)",time-kill activity (fungal presence) [4],also measured
"C[C@@H]1[C@H](O)[C@@H](C)/C=C/C=C/C=C/C=C/C=C/C=C/C=C/[C@H](O[C@@H]2O[C@H](C)[C@@H](O)[C@H](N)[C@@H]2O)C[C@@H]2O[C@](O)(C[C@@H](O)C[C@@H](O)[C@H](O)CC[C@@H](O)C[C@@H](O)CC(=O)O[C@H]1C)C[C@H](O)[C@H]2C(=O)O [AMB, Amphotericin B]",63.983 µg·h/mL,0.250 mL/h,9.664 h,0.006 L,15.96 h and 15.964 h,very toxic,1.2 mg/kg,1.1 mg/kg,reducing the fungal presence,"hemolysis ([2]; after 3 h of agitation): 76%; outcome at twice the LD50 ([3]; mice injected at twice the LD50): die instantaneously; maximum tolerated dose ([3]; mouse): about 1 mg/kg body weight per day; mice rescued (survival) ([5]; 1 mg/kg/day): 10 of the 12; IC50 (concentration which inhibited cell growth by 50%) ([6]; 24 h exposure, MTT): 6.6 µg/mL"
"COC(=O)C1C(O)CC2(O)CC(O)CC(O)C(O)CCC(O)CC(O)CC(=O)OC(C)C(C)C(O)C(C)C=CC=CC=CC=CC=CC=CC=CC(OC3OC(C)C(O)C(NC(=O)CCOCCOCCOCCOCCOCCOCCOCCOCCN)C3O)CC1O2 (stereo not drawn) [Compound 6, amphotericin B amide, methyl ester-PEG(8)-amine]",421.234 µg·h/mL,0.508 mL/h,5.431 h,0.002 L,3.153 h,negligible toxicity,not reached,42 mg/kg,reducing the fungal presence,"ke [1]: 0.220; hemolytic activity ([2]; after 3 h of agitation): only slightly hemolytic; mouse LD50 fold higher than AMB ([3]; female ICR mice, intravenous): ≥ 40 fold; signs of toxicity at the highest injectable doses ([3]; female ICR mice, intravenous): did not show any signs of toxicity; mice rescued (survival) ([5]; 3.5 mg/kg): the same level of efficacy; mice rescued (survival) ([5]; 7 mg/kg): rescued all of the mice; times less toxic than AMB ([6]; from IC50): at least 600 times"

# Source: patent publication US9750817B2, “Amphotericin B derivatives” (priority 2015, dated 2017)
